# Columns and labels:
# PC-3 = assay: NCI one-dose SRB assay (Prostate); assay type: cell-based, human
# Experimental: (§1) The structures of all the newly prepared pyridine-ureas 8a–n were submitted to the National Cancer Institute (NCI) Developmental Therapeutic Program. Eight compounds 8b, 8d, 8e, 8i, 8j and 8l–n were selected to be examined for their in vitro growth inhibitory activity. The anticancer assays were carried out according to the protocol of the Drug Evaluation Branch, NCI, Bethesda. The selected pyridine-ureas were tested at one dose primary anticancer assay against a panel of approximately 58 cancer lines (concentration 10^−5 M). The tested human cancer cell lines emerged from nine different cancer subtypes: leukemia, colon, melanoma, ovarian, lung, CNS, renal, breast and prostate cancers. The sulforhodamine B (SRB) protein assay was adopted to estimate the cell viability and growth. The results were reported as mean-graph of the percentage growth of the treated cells, and presented as percentage growth inhibition (GI%) caused by the test compounds (Table 2).
# (§2) The anticancer assays were performed in accordance with the protocol of the Drug Evaluation Branch, NCI, Bethesda. A 48 h drug exposure protocol was used and sulforhodamine B (SRB) protein assay was applied to estimate the cell viability and growth, as reported earlier.
# DU-145 = assay: NCI one-dose SRB assay (Prostate); assay type: cell-based, human
# Experimental: as §1, §2
# A549/ATCC = assay: NCI one-dose SRB assay (Non-Small Cell Lung Cancer); assay type: cell-based, human
# Experimental: as §1, §2
# NCI-H522 = assay: as above; assay type: cell-based, human
# Experimental: as §1, §2
# HOP-62 = assay: as above; assay type: cell-based, human
# Experimental: as §1, §2
# NCI-H226 = assay: as above; assay type: cell-based, human
# Experimental: as §1, §2
# NCI-H460 = assay: as above; assay type: cell-based, human
# Experimental: as §1, §2
# EKVX = assay: as above; assay type: cell-based, human
# Experimental: as §1, §2
# HOP-92 = assay: as above; assay type: cell-based, human
# Experimental: as §1, §2
# NCI-H322M = assay: as above; assay type: cell-based, human
# Experimental: as §1, §2
# NCI-H23 = assay: as above; assay type: cell-based, human
# Experimental: as §1, §2
# NCI 58 cell line panel = assay: NCI one-dose SRB assay, whole panel / subpanel summary; assay type: cell-based, human
# Experimental: as §1, §2
# OVCAR-4 = assay: NCI one-dose SRB assay (Ovarian Cancer); assay type: cell-based, human
# Experimental: as §1, §2
# OVCAR-3 = assay: NCI one-dose SRB assay (Ovarian Cancer); assay type: cell-based, human
# Experimental: as §1, §2
# OVCAR-5 = assay: NCI one-dose SRB assay (Ovarian Cancer); assay type: cell-based, human
# Experimental: as §1, §2
# BT-549 = assay: NCI one-dose SRB assay (Breast Cancer); assay type: cell-based, human
# Experimental: as §1, §2
# MDA-MB-468 = assay: NCI one-dose SRB assay (Breast Cancer); assay type: cell-based, human
# Experimental: as §1, §2
# HS 578T = assay: NCI one-dose SRB assay (Breast Cancer); assay type: cell-based, human
# Experimental: as §1, §2
# MDA-MB-231 = assay: NCI one-dose SRB assay (Breast Cancer); assay type: cell-based, human
# Experimental: as §1, §2
# MCF7 = assay: NCI one-dose SRB assay (Breast Cancer); assay type: cell-based, human
# Experimental: as §1, §2
# T-47D = assay: NCI one-dose SRB assay (Breast Cancer); assay type: cell-based, human
# Experimental: as §1, §2
# U251 = assay: NCI one-dose SRB assay (CNS Cancer); assay type: cell-based, human
# Experimental: as §1, §2
# SNB-19 = assay: NCI one-dose SRB assay (CNS Cancer); assay type: cell-based, human
# Experimental: as §1, §2
# SF-295 = assay: NCI one-dose SRB assay (CNS Cancer); assay type: cell-based, human
# Experimental: as §1, §2
# SF-268 = assay: NCI one-dose SRB assay (CNS Cancer); assay type: cell-based, human
# Experimental: as §1, §2
# SNB-75 = assay: NCI one-dose SRB assay (CNS Cancer); assay type: cell-based, human
# Experimental: as §1, §2
# SF-539 = assay: NCI one-dose SRB assay (CNS Cancer); assay type: cell-based, human
# Experimental: as §1, §2
# [1] = Homo sapiens, 10 μM, read-out: Percentage growth inhibition (GI%)
structure (smiles),measurement,setting,value
"COc1ccc(-c2ccc(NC(=O)Nc3cccc(Cl)c3)c(C)n2)cc1OC [Compound 8j, 1-(3-Chlorophenyl)-3-(6-(3,4-dimethoxyphenyl)-2-methylpyridin-3-yl) Urea]",inhibition at 10 µM,"PC-3; Homo sapiens, PC-3, 10 μM, read-out: Percentage growth inhibition (GI%)",61%
same,Growth Percent,"PC-3; PC-3, 1.00E-5 Molar",39.30%
same,Growth Percent,"DU-145; DU-145, 1.00E-5 Molar",101.79%
same,inhibition at 10 µM,"DU-145; Homo sapiens, DU-145, 10 μM, read-out: Percentage growth inhibition (GI%)",< 10%
same,Growth Percent,A549/ATCC; 1.00E-5 Molar,61.64%
same,inhibition at 10 µM,A549/ATCC; [1],39%
same,inhibition at 10 µM,"NCI-H522; Homo sapiens, NCI-H522, 10 μM, read-out: Percentage growth inhibition (GI%)",41%
same,Growth Percent,"NCI-H522; NCI-H522, 1.00E-5 Molar",59.88%
same,Growth Percent,"HOP-62; HOP-62, 1.00E-5 Molar",77.77%
same,inhibition at 10 µM,"HOP-62; Homo sapiens, HOP-62, 10 μM, read-out: Percentage growth inhibition (GI%)",23%
same,inhibition at 10 µM,"NCI-H226; Homo sapiens, NCI-H226, 10 μM, read-out: Percentage growth inhibition (GI%)",< 10%
same,Growth Percent,"NCI-H226; NCI-H226, 1.00E-5 Molar",91.65%
same,inhibition at 10 µM,"NCI-H460; Homo sapiens, NCI-H460, 10 μM, read-out: Percentage growth inhibition (GI%)",17%
same,Growth Percent,"NCI-H460; NCI-H460, 1.00E-5 Molar",83.94%
same,Growth Percent,EKVX; 1.00E-5 Molar,83.81%
same,inhibition at 10 µM,EKVX; [1],17%
same,Growth Percent,"HOP-92; HOP-92, 1.00E-5 Molar",60.18%
same,inhibition at 10 µM,"HOP-92; Homo sapiens, HOP-92, 10 μM, read-out: Percentage growth inhibition (GI%)",40%
same,Growth Percent,NCI-H322M; 1.00E-5 Molar,85.92%
same,inhibition at 10 µM,NCI-H322M; [1],15%
same,inhibition at 10 µM,"NCI-H23; Homo sapiens, NCI-H23, 10 μM, read-out: Percentage growth inhibition (GI%)",11%
same,Growth Percent,"NCI-H23; NCI-H23, 1.00E-5 Molar",89.49%
same,inhibition at 10 µM,"NCI 58 cell line panel; Homo sapiens, 10 μM, one dose, read-out: mean inhibition (mean % growth inhibition over NCI 58 cell line panel)",22 to 34%
same,Mean Growth Percent,"NCI 58 cell line panel; One Dose Mean Graph, 1.00E-5 Molar",78.01%
same,inhibition at 10 µM,"OVCAR-4; Homo sapiens, OVCAR-4, 10 μM, read-out: Percentage growth inhibition (GI%)",< 10%
same,Growth Percent,"OVCAR-4; OVCAR-4, 1.00E-5 Molar",91.75%
same,inhibition at 10 µM,"OVCAR-3; Homo sapiens, OVCAR-3, 10 μM, read-out: Percentage growth inhibition (GI%)",10%
same,Growth Percent,"OVCAR-3; OVCAR-3, 1.00E-5 Molar",90.37%
same,inhibition at 10 µM,"OVCAR-5; Homo sapiens, OVCAR-5, 10 μM, read-out: Percentage growth inhibition (GI%)",12%
same,Growth Percent,"OVCAR-5; OVCAR-5, 1.00E-5 Molar",88.21%
same,Growth Percent,"BT-549; BT-549, 1.00E-5 Molar",91.71%
same,inhibition at 10 µM,"BT-549; Homo sapiens, BT-549, 10 μM, read-out: Percentage growth inhibition (GI%)",< 10%
same,inhibition at 10 µM,"MDA-MB-468; Homo sapiens, MDA-MB-468, 10 μM, read-out: Percentage growth inhibition (GI%)",29%
same,Growth Percent,"MDA-MB-468; MDA-MB-468, 1.00E-5 Molar",71.36%
same,Growth Percent,HS 578T; 1.00E-5 Molar,95.46%
same,inhibition at 10 µM,HS 578T; [1],< 10%
same,inhibition at 10 µM,"MDA-MB-231; Homo sapiens, MDA-MB-231, 10 μM, read-out: Percentage growth inhibition (GI%)",13%
same,Growth Percent,"MDA-MB-231; MDA-MB-231/ATCC, 1.00E-5 Molar",87.05%
same,inhibition at 10 µM,"MCF7; Homo sapiens, MCF7, 10 μM, read-out: Percentage growth inhibition (GI%)",25%
same,Growth Percent,"MCF7; MCF7, 1.00E-5 Molar",75.86%
same,Growth Percent,T-47D; 1.00E-5 Molar,49.90%
same,inhibition at 10 µM,"T-47D; Homo sapiens, T47D, 10 μM, read-out: Percentage growth inhibition (GI%)",51%
same,inhibition at 10 µM,"U251; Homo sapiens, U-251, U251, 10 μM, read-out: Percentage growth inhibition (GI%)",17%
same,Growth Percent,"U251; U251, 1.00E-5 Molar",83.31%
same,inhibition at 10 µM,"SNB-19; Homo sapiens, SNB-19, 10 μM, read-out: Percentage growth inhibition (GI%)",< 10%
same,Growth Percent,"SNB-19; SNB-19, 1.00E-5 Molar",97.00%
same,inhibition at 10 µM,"SF-295; Homo sapiens, SF-295, 10 μM, read-out: Percentage growth inhibition (GI%)",17%
same,Growth Percent,"SF-295; SF-295, 1.00E-5 Molar",83.73%
same,inhibition at 10 µM,"SF-268; Homo sapiens, SF-268, 10 μM, read-out: Percentage growth inhibition (GI%)",13%
same,Growth Percent,"SF-268; SF-268, 1.00E-5 Molar",87.00%
same,inhibition at 10 µM,"SNB-75; Homo sapiens, SNB-75, 10 μM, read-out: Percentage growth inhibition (GI%)",16%
same,Growth Percent,"SNB-75; SNB-75, 1.00E-5 Molar",84.12%
same,inhibition at 10 µM,"SF-539; Homo sapiens, SF-539, 10 μM, read-out: Percentage growth inhibition (GI%)",11%
same,Growth Percent,"SF-539; SF-539, 1.00E-5 Molar",89.70%
same,melting point,,249 to 250 °C

# Reference: PMC6100082, “Pyridine-Ureas as Potential Anticancer Agents: Synthesis and In Vitro Biological Evaluation” (Molecules : A Journal of Synthetic Chemistry and Natural …, 2018)
